Test results as given in PubChem BioAssay (NCI).
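Interpolation was linear, between the two tested concentrations surrounding the appropriate level; five concentrations were tested over 48 hours in 96-well plates. GI50 = concentration required for 50% inhibition of growth. At the TGI there is no net growth.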

Key:
Assay in all cases: DTP human tumour cell line panel, 48 h
A498 renal = test system: A498 renal
HOP-62 NSCLC = test system: HOP-62 NSCLC
IGROV1 ovarian = test system: IGROV1 ovarian
MCF7 breast = test system: MCF7 breast
OVCAR-5 ovarian = test system: OVCAR-5 ovarian
SK-MEL-2 melanoma = test system: SK-MEL-2 melanoma
SNB-75 CNS = test system: SNB-75 CNS
SW-620 colon = test system: SW-620 colon
U251 CNS = test system: U251 CNS
UACC-257 melanoma = test system: UACC-257 melanoma

SMILES	GI50 (A498 renal)	TGI (A498 renal)	GI50 (HOP-62 NSCLC)	TGI (HOP-62 NSCLC)	GI50 (IGROV1 ovarian)	TGI (IGROV1 ovarian)	GI50 (MCF7 breast)	TGI (MCF7 breast)	GI50 (OVCAR-5 ovarian)	TGI (OVCAR-5 ovarian)	GI50 (SK-MEL-2 melanoma)	TGI (SK-MEL-2 melanoma)	GI50 (SNB-75 CNS)	TGI (SNB-75 CNS)	GI50 (SW-620 colon)	TGI (SW-620 colon)	GI50 (U251 CNS)	TGI (U251 CNS)	GI50 (UACC-257 melanoma)	TGI (UACC-257 melanoma)
COc1ccc(C(=O)C[C@]2(O)C(=O)Nc3c(Cl)ccc(Cl)c32)cc1	0.295 µM	1.52 µM	1.06 µM	> 100 µM	0.531 µM	> 100 µM	0.383 µM	> 100 µM	2.43 µM	> 100 µM	0.627 µM	> 100 µM	0.199 µM	0.972 µM	0.379 µM	> 100 µM	0.508 µM	> 100 µM	50.3 µM	> 100 µM
COc1cc2cc(Oc3ccc(NC(=O)c4cccc5c4OCCO5)cc3)c(C)nc2cc1OC	2.06 µM	68.4 µM	9.13 µM	94.6 µM	64.5 µM	> 100 µM	6.27 µM	> 100 µM	10.8 µM	> 100 µM	32.9 µM	> 100 µM	4.06 µM	53.1 µM	49.9 µM	> 100 µM	5.03 µM	> 100 µM	4.79 µM	63.5 µM
Cn1cc(CO)c2ccccc21	17.6 µM	73.1 µM	73.8 µM	> 100 µM	10.9 µM	> 100 µM	26.9 µM	> 100 µM	> 100 µM	> 100 µM	36.2 µM	> 100 µM	27.6 µM	> 100 µM	19.1 µM	91.1 µM	40.3 µM	> 100 µM	> 100 µM	> 100 µM
NC(=O)C(=O)n1ncc(Cl)c(Cl)c1=O	–	> 100 µM	–	> 100 µM	–	> 77.4 µM	–	> 100 µM	–	63.1 µM	–	30.8 µM	–	> 69.7 µM	–	35.3 µM	–	> 60.3 µM	–	58.4 µM
COc1ccc(/C=C(/C(=O)n2cnnn2)c2cc(OC)c(OC)c(OC)c2)cc1	4.26 µM	> 100 µM	4.82 µM	> 100 µM	4.69 µM	> 100 µM	2.63 µM	> 100 µM	5.78 µM	> 100 µM	6.64 µM	> 100 µM	3.34 µM	> 100 µM	3.78 µM	> 100 µM	4.22 µM	> 100 µM	> 100 µM	> 100 µM
COc1cc2nnn3c4ncccc4c(N=O)c3c2cc1OC	15.1 µM	35.3 µM	6.71 µM	16.8 µM	0.896 µM	> 37 µM	0.327 µM	> 74.5 µM	5.83 µM	> 64.6 µM	16.5 µM	> 68.1 µM	2.59 µM	40.1 µM	0.312 µM	> 100 µM	0.777 µM	> 39.9 µM	8.56 µM	> 100 µM
COC(=O)[C@H](Cc1ccccc1)NC(=O)c1csc([C@@H](C[C@H](C(C)C)N(C)C(=O)[C@@H](NC(=O)[C@H]2CCCN2C)C2CC2)OC(C)=O)n1	1.53 µM	15.2 µM	0.831 µM	> 33.3 µM	0.327 µM	> 33.3 µM	0.124 µM	> 33.3 µM	1.66 µM	> 33.3 µM	0.728 µM	> 33.3 µM	0.131 µM	> 33.3 µM	0.235 µM	> 33.3 µM	0.521 µM	> 33.3 µM	16.9 µM	> 33.3 µM
O=C(CCN1CCCC1)Nc1ccc2c(Nc3ccccc3)c3ccccc3nc2c1	0.864 µM	2.22 µM	0.404 µM	2.51 µM	0.474 µM	3.02 µM	0.0221 µM	1.77 µM	1.52 µM	4.4 µM	1.69 µM	3.56 µM	1.09 µM	2.33 µM	0.232 µM	1.87 µM	0.429 µM	2.19 µM	1.75 µM	3.83 µM
Fc1c[c-]c(-c2ccccn2)c(F)c1.[CH3-].[Pt+2].c1ccc(P(C[PH+](c2ccccc2)c2ccccc2)c2ccccc2)cc1	0.712 µM	1.58 µM	0.932 µM	3.71 µM	0.47 µM	1.86 µM	0.577 µM	2.98 µM	0.98 µM	2.54 µM	0.695 µM	1.89 µM	0.967 µM	4.14 µM	0.52 µM	1.49 µM	0.347 µM	1.06 µM	0.696 µM	2.93 µM
C[C@@H]1C/C=C\C(=O)O[C@H](/C=C/C#C/C=C/C(C)(C)[C@@H](O)c2cccc(O)c2Br)[C@@H](C)/C=C/[C@H](C)C[C@H](OC(N)=O)C1	0.543 µM	18.7 µM	0.633 µM	21.4 µM	0.0344 µM	18.5 µM	0.0613 µM	15.5 µM	0.0322 µM	18.3 µM	0.0346 µM	1.01 µM	0.255 µM	21.2 µM	0.0348 µM	15.8 µM	0.0706 µM	18.3 µM	0.0322 µM	4.08 µM
O=C(O)C1C2C=CC(O2)C1C(=O)Nc1ncccn1 (stereo not given)	–	> 100 µM	–	> 100 µM	–	> 100 µM	–	> 100 µM	–	> 100 µM	–	> 100 µM	–	> 100 µM	–	> 100 µM	–	> 100 µM	–	> 100 µM
CC(C)(CO)N=Cc1ccccc1[O-].CC(C)(CO)N=Cc1ccccc1[O-].[Co+2]	> 100 µM	> 100 µM	> 100 µM	> 100 µM	84.3 µM	> 100 µM	27.3 µM	> 100 µM	> 79.7 µM	> 100 µM	> 76.5 µM	> 100 µM	> 86.4 µM	> 100 µM	72.4 µM	> 100 µM	74.9 µM	> 100 µM	30.1 µM	> 100 µM
